Here are results for nine compounds from patent US10975057B2, “6-aminopyridin-3-yl pyrazoles as modulators of RORgT” (Janssen Pharmaceutica NV, priority 2018, dated 2021).

What is called IC50 is the concentration at which inhibition is half-maximal.

For test [1], the system named is IL-17 production by CD4 T cells. The test can be described thus: cells. Particulars: Homo sapiens, 72 h, read-out: Human Th17 Assay, IC50 (μM). As for the experimental part:
The human Th17 assay tests the effect of RORγt modulatory compounds on IL-17 production by CD4 T cells under conditions which favor Th17 differentiation. Total CD4^+ T cells were isolated from the peripheral blood mononuclear cells (PBMC) of healthy donors using a CD4^+ T cell isolation kit II, following the manufacturer's instructions (Miltenyi Biotec). […] 50 μL of compound at titrated concentrations in DMSO were added into each well at final DMSO concentration at 0.2%. Cells were incubated for 1 hour, then 50 μL of Th17 cell differentiation medium was added to each well. The final concentrations of antibodies and cytokines (R&D Systems) in differentiation medium were: 3×10^6/mL anti-CD3/CD28 beads (prepared using human T cell activation/expansion kit, Miltenyi Biotec), 10 μg/mL anti-IL4, 10 μg/mL anti-IFNγ, 10 ng/mL IL1β, 10 ng/mL IL23, 50 ng/mL IL6, 3 ng/mL TGFβ and 20 U/mL IL2. Cells were cultured at 37° C. and 5% CO2 for 3 days. Supernatants were collected and the accumulated IL-17 in culture was measured by using MULTI-SPOT® Cytokine Plate following manufacture's instruction (Meso Scale Discovery). The plate was read using Sector Imager 6000, and IL-17 concentration was extrapolated from the standard curve. The IC50s were determined by GraphPad.

Test [2] concerns Th17-dependent learned helplessness. To be noted: mice; cited from earlier work.
The test system of test [3] is obese diabetic mice. Particulars: cited from earlier work.

As to `CCn1nc(C(=O)NC[C@]2(O)CC[C@@H](S(C)(=O)=O)CC2)c(C)c1-c1cnc(NC(C)(C)CC(F)(F)F)cc1OC(F)F` [Example 1, 5-(4-(Difluoromethoxy)-6-((4,4,4-trifluoro-2-methylbutan-2-yl)amino)pyridin-3-yl)-1-ethyl-N-(((1s,4s)-1-hydroxy-4-(methylsulfonyl)cyclohexyl)methyl)-4-methyl-1H-pyrazole-3-carboxamide], the IC50 in test [1] was found to be 0.0066 µM.
In the case of `CCn1nc(C(=O)NC[C@]2(O)CC[C@@H](S(C)(=O)=O)CC2)c(Cl)c1-c1cnc(NC(C)(C)CC(F)(F)F)cc1OC(F)F` [Example 15, 4-Chloro-5-(4-(difluoromethoxy)-6-((4,4,4-trifluoro-2-methylbutan-2-yl)amino)pyridin-3-yl)-1-ethyl-N-(((1s,4s)-1-hydroxy-4-(methylsulfonyl)cyclohexyl)methyl)-1H-pyrazole-3-carboxamide], the IC50 in test [1] turned out to be 0.0062 µM.
As for `CCn1nc(C(=O)NC[C@]2(O)CC[C@@H](S(C)(=O)=O)CC2)c(Cl)c1-c1cnc(NC(C)(C)CC(F)(F)F)cc1C(C)C` [Example 16, 4-Chloro-1-ethyl-N-(((1s,4s)-1-hydroxy-4-(methylsulfonyl)cyclohexyl)methyl)-5-(4-isopropyl-6-((4,4,4-trifluoro-2-methylbutan-2-yl)amino)pyridin-3-yl)-1H-pyrazole-3-carboxamide], in test [1], the IC50 worked out at 0.017 µM.
Take `CCc1cc(NC(C)(C)CC(F)(F)F)ncc1-c1c(Cl)c(C(=O)NC[C@]2(O)CC[C@@H](S(C)(=O)=O)CC2)nn1CC` [Example 18, 4-Chloro-1-ethyl-5-(4-ethyl-6-((4,4,4-trifluoro-2-methylbutan-2-yl)amino)pyridin-3-yl)-N-(((1s,4s)-1-hydroxy-4-(methylsulfonyl)cyclohexyl)methyl)-1H-pyrazole-3-carboxamide]: the IC50 in test [1] turned out to be 0.0041 µM.
On the same count and under the same terms, as for `CCn1nc(C(=O)NC[C@]2(O)CC[C@@H](S(C)(=O)=O)CC2)c(Cl)c1-c1cnc(NC(C)(C)CC(F)(F)F)cc1OC` [Example 79, 4-Chloro-1-ethyl-N-(((1s,4s)-1-hydroxy-4-(methylsulfonyl)cyclohexyl)methyl)-5-(4-methoxy-6-((4,4,4-trifluoro-2-methylbutan-2-yl)amino)pyridin-3-yl)-1H-pyrazole-3-carboxamide], the figure is 0.013 µM.
As to `CCn1nc(C(=O)NC[C@]2(O)CC[C@@H](S(C)(=O)=O)CC2)c(Cl)c1-c1cnc(NC(C)(C)CC(F)(F)F)cc1C(F)F` [Example 97, 4-Chloro-5-(4-(difluoromethyl)-6-((4,4,4-trifluoro-2-methylbutan-2-yl)amino)pyridin-3-yl)-1-ethyl-N-(((1s,4s)-1-hydroxy-4-(methylsulfonyl)cyclohexyl)methyl)-1H-pyrazole-3-carboxamide], in test [1], the IC50 was 0.0033 µM.
Take `CCn1nc(C(=O)NC[C@H]2CC[C@H](S(C)(=O)=O)CC2)c(Cl)c1-c1cnc(N[C@H](C)C(F)(F)F)cc1OC` [Example 98, 4-Chloro-1-ethyl-5-(4-methoxy-6-(((R)-1,1,1-trifluoropropan-2-yl)amino)pyridin-3-yl)-N-(((1r,4R)-4-(methylsulfonyl)cyclohexyl)methyl)-1H-pyrazole-3-carboxamide]: the IC50 in test [1] turned out to be 0.14 µM.
With `CC(=O)Nc1nc(C)c(S(=O)(=O)Nc2ccc(C(O)(C(F)(F)F)C(F)(F)F)cc2)s1` [SR1001], the Th17-dependent learned helplessness result in test [2] is given as “reduced Th17-dependent learned helplessness”.
As for `CC(=O)N1CCN(Cc2ccc(-c3ccc(C(O)(C(F)(F)F)C(F)(F)F)cc3)cc2)CC1` [SR1555], in test [3], the body weight entry is listed as “reduced body weight”, the fat mass entry is “significant reduction in fat mass”, the food intake entry is “modest reduction in food intake” and the insulin sensitivity result is “improved insulin sensitivity”.
